US20130195798A1, “COMBINATION THERAPY FOR TREATMENT OF VIRAL INFECTIONS” (The Chancellors, Masters and Scholars of the University of …, priority 2006, published 2013)

Tests used:
[1] = tested on: cytopathic BVDV; details: higher NB-DNJ concentrations in combination with IFN; cited from earlier work
[2] = tested on: ncp BVDV strain Pe515; assay: Real time RT-PCR of secreted viral RNA in supernatants of persistently infected MDBK cells (Example 3); type: cell-based, bovine viral diarrhea virus; details: iminosugar added to IFN/RBV from the beginning of treatment
Experimental: Madin-Darby bovine kidney cells (MDBK) MDBK cells were seeded at 1×10^6 cells/35 mm dish, infected with non-cytopathic (ncp) BVDV strain Pe515 (National Animal Disease Laboratory) at a MOI of 0.1, and passaged into fresh RPMI 1640 medium containing 10% (v/v) Foetal calf serum using a 1:8 dilution every three days. After achieving a stable infection IFN (1000 IU) and RBV (1 μM) (Sigma-Aldrich) were added to the cells; this passage was denoted passage 0 (P0). Simultaneously, a non-drug treated positive control sample and mock-infected (M.I.) negative controls cultured in the presence and absence of IFN and RBV (1000 IU and 1 μM, respectively) were prepared. Cells continued to be passaged every 3 days into fresh medium containing IFN and RBV. […] At each passage the combined supernatants of cultured cells from duplicate wells were harvested (to account for biological variation), levels of secreted viral RNA measured (by real time RT-PCR using technical duplicates) and the infectivity of the supernatant determined using an immunofluorescence (IF) based infectivity assay.
At each passage, a 500 μl aliquot of each supernatant harvested from the cultured cells was concentrated by ultrafiltration (10 kDa molecular weight cut off Centricon filter; Millipore, Mass., USA) to 140 μl. […] Real time RT-PCR was carried out using the Qiagen Quantitect RT-PCR kit. […]

## CCCCN1C[C@H](O)[C@@H](O)[C@H](O)[C@H]1CO [NB-DNJ, N-butyl deoxynojirimycin]
[1]
  antiviral effect of the combination: greater than additive antiviral effect
[2]
  additional effect on decrease of viral RNA levels (synergy): no synergy was observed
